{
  "source": "ChEMBL document CHEMBL1128934",
  "about": "“Nonpeptide glycoprotein IIB/IIIA inhibitors. 12. Potent and orally active centrally constrained thieno[2,3-c]pyridones” (Bioorg Med Chem Lett, 1996)",
  "note": "pIC50: −log10 of the molar value.",
  "data": [
    {"species_on_record": "Homo sapiens", "experiment": "Compound was evaluated for inhibition of ex vivo ADP mediated platelet aggregation of human gel filtered platelets", "type": "functional", "values": [
      {"smiles": "O=C(NC[C@H](NS(=O)(=O)c1ccccc1)C(=O)O)c1cc2c(s1)CCN(CCC1CCNCC1)C2=O", "pIC50": 8.15},
      {"smiles": "CCCCS(=O)(=O)N[C@@H](CNC(=O)c1csc2c1C(=O)N(CCC1CCNCC1)CC2)C(=O)O", "pIC50": 4.48},
      {"smiles": "O=C(O)CCCC(=O)c1cc2c(s1)CCN(CCC1CCNCC1)C2=O", "pIC50": 6.59},
      {"smiles": "C[C@H](CC(=O)O)NC(=O)c1cc2c(s1)CCN(CCC1CCNCC1)C2=O", "pIC50": 6.66},
      {"smiles": "CCCCS(=O)(=O)N[C@@H](CNC(=O)c1cc2c(s1)CCN(CCC1CCNCC1)C2=O)C(=O)O", "pIC50": 8.10},
      {"smiles": "O=C(O)CCNC(=O)c1ccc2c(c1)C(=O)N(CCC1CCNCC1)C2", "pIC50": 7.60},
      {"smiles": "O=C(O)CCNC(=O)c1cc2c(s1)CCN(CCC1CCNCC1)C2=O", "pIC50": 6.82},
      {"smiles": "O=C(NCc1ccccc1)N[C@@H](CNC(=O)c1cc2c(s1)CCN(CCC1CCNCC1)C2=O)C(=O)O", "pIC50": 7.60},
      {"smiles": "O=C(NC[C@H](NS(=O)(=O)c1cccnc1)C(=O)O)c1cc2c(s1)CCN(CCC1CCNCC1)C2=O", "pIC50": 7.89}
    ]}
  ]
}
